Laboratory results: patent US20130261147A1, “COMPOSITION FOR PREVENTING OR TREATING DEMENTIA” (priority 2010, published 2013)
“Also recorded” adds a separate entry of the source.

Legend:
sAPPα = test: Western blot of sAPPα (product of alpha-secretase activity), band density; assay type: cell-based; conditions: 0.1 μg/ml; for effect on secretion / production change of sAPPα (in words): Western blot; for Reduction Rate of sAPPα (%) Against Negative Control: band density of Western blot
Procedure: (§1) Effects of the compounds on the production of a product resulted from the activity of alpha-secretase, sAPPα and a product resulted from the activity of beta-secretase, sAPPβ, were investigated through the Western blot methods of sAPPα and sAPPβ, and the results are shown in FIG. 6. […] The band densities of sAPPα and sAPPβ were measured from the Western blot results of FIG. 6, and the results are shown Table 6 and FIG. 7.

[1] = system: Human Beta Amyloid [1-42] (Aβ42) production in HeLa cell line transfected with Human APP; test: Inhibition of Aβ42 production, HeLa cell line transfected with Human APP, colorimetric ELISA of culture medium; assay type: cell-based; conditions: for inhibitory effect on Aβ42 production, dependence on concentration (in words): over the concentrations tested
Excerpt: (§2) To investigate in vitro inhibitory activity of Lycoris aurea extracts against beta-amyloid production, a HeLa cell line transfected with Human APP was used. This cell line was provided from Professor Tae-Wan Kim (Department of Pathology, Columbia University Medical Center, New York, N.Y. 10032, USA). For the quantity analysis of major beta-amyloids, Aβ40, and Aβ42, which are resulted from the activity of gamma-secretase secreted from cells, Human Beta Amyloid (Aβ40), and Human Beta Amyloid (Aβ42) Colorimetric ELISA Kit (#KHB3482 and #KHB3442; BioSource International, Inc., USA) were each used.
(§3) The alcohol extracts of Lycoris aurea (CN1-M, see Example 1) with certain concentrations set forth in Table 1 below were added to the cell culture medium (DMEM culture medium #11995; GIBCO) cultured with the transfected HeLa cells, which were then cultured at 37° C. for 8 hours. A transfected HeLa cell culture medium with no treatment, to which no Lycoris aurea alcohol extracts were added, was used as a negative control.

alpha-secretase = test: Alpha-secretase activity assay kit with total membrane proteins from HeLa cells; assay type: biochemical; conditions: for Activity Change Rate of Alpha-Secretase (%) against Negative Control: 100%: No Change; for change of the activity of the alpha-secretase (in words): 0.01 and 0.1 μg/ml
Excerpt: In order to investigate which secretase is responsible for the inhibitory effects of the compounds on Aβ production, an activity assay kit (#CBA042; Calbiochem, USA) of the alpha-secretase was used. For the alpha-secretase, the total membrane proteins obtained from the HeLa cells (see Test Example 1) were used.

sAPPβ = test: Western blot of sAPPβ (product of beta-secretase activity), band density; assay type: cell-based; conditions: 0.1 μg/ml; for effect on secretion / production change of sAPPβ (in words): Western blot; for Reduction Rate of sAPPβ (%) Against Negative Control: band density of Western blot
Procedure: as §1

cells = test: MTT Cell Proliferation assay, cell death activity; assay type: cell-based; conditions: 8 hours; for cytotoxicity (in words): up to 10 μg/ml
Procedure: In order to investigate the cell death activity caused by the compounds, lycoricidine and lycoricidinol, MTT Cell Proliferation assay method was used (ATCC catalog #30-1010K, Manassas, USA). After cells were treated with each compound having various concentrations for 8 hours, viable cells were measured quantitatively, and the results are shown in Table 7 and FIG. 8.

[2] = system: Human Beta Amyloid [1-40] (Aβ40) production in HeLa cell line transfected with Human APP; test: Inhibition of Aβ40 production, HeLa cell line transfected with Human APP, colorimetric ELISA of culture medium; assay type: cell-based; conditions: for inhibitory effect on Aβ40 production, dependence on concentration (in words): over the concentrations tested
Excerpt: as §2, §3

| Compound | effect on secretion / production change of sAPPα (in words) (sAPPα) | Reduction Rate of sAPPα (%) Against Negative Control (sAPPα) [%] | inhibitory effect on Aβ42 production, dependence on concentration (in words) [1] | Activity Change Rate of Alpha-Secretase (%) against Negative Control (alpha-secretase; 0.01 μg/ml) [%] | Activity Change Rate of Alpha-Secretase (%) against Negative Control (alpha-secretase; 0.1 μg/ml) [%] | change of the activity of the alpha-secretase (in words) (alpha-secretase) | effect on secretion / production change of sAPPβ (in words) (sAPPβ) | Reduction Rate of sAPPβ (%) Against Negative Control (sAPPβ) [%] | Cell Death Rate (%) against Negative Control (cells; 0.01 μg/ml) [%] | Cell Death Rate (%) against Negative Control (cells; 0.1 μg/ml) [%] | Cell Death Rate (%) against Negative Control (cells; 1 μg/ml) [%] | Cell Death Rate (%) against Negative Control (cells; 10 μg/ml) [%] | cytotoxicity (in words) (cells) | inhibitory effect on Aβ40 production, dependence on concentration (in words) [2] | further results |
| --- | --- | --- | --- | --- | --- | --- | --- | --- | --- | --- | --- | --- | --- | --- | --- |
| O=C1NC2C(=CC(O)C(O)C2O)c2cc3c(cc21)OCO3 (centres unmarked) [Lycoricidine, lycoricidine] | did not affect the secretion; also recorded: not significant | 12 | concentration-dependent | 106 | 110 | did not change the activity | did not affect the secretion; also recorded: not significant | 17 | 4.9 | 11.3 | 19 | 21.1 | not cytotoxic | concentration-dependent | inhibition at 0.01 µg/mL ([1]; Homo sapiens, HeLa, 0.01 μg/ml, read-out: Aβ42 Production Inhibitory Rate (%) against Negative Control): 16%; inhibition at 0.1 µg/mL ([1]; Homo sapiens, HeLa, 0.1 μg/ml, read-out: Aβ42 Production Inhibitory Rate (%) against Negative Control): 81.3%; inhibition at 1 µg/mL ([1]; Homo sapiens, HeLa, 1 μg/ml, read-out: Aβ42 Production Inhibitory Rate (%) against Negative Control): 97.5%; inhibition at 10 µg/mL ([1]; Homo sapiens, HeLa, 10 μg/ml, read-out: Aβ42 Production Inhibitory Rate (%) against Negative Control): 100%; inhibition at 0.01 µg/mL ([2]; Homo sapiens, HeLa, 0.01 μg/ml, read-out: Aβ40 Production Inhibitory Rate (%) against Negative Control): 3.3%; inhibition at 0.1 µg/mL ([2]; Homo sapiens, HeLa, 0.1 μg/ml, read-out: Aβ40 Production Inhibitory Rate (%) against Negative Control): 67%; inhibition at 1 µg/mL ([2]; Homo sapiens, HeLa, 1 μg/ml, read-out: Aβ40 Production Inhibitory Rate (%) against Negative Control): 92.8%; inhibition at 10 µg/mL ([2]; Homo sapiens, HeLa, 10 μg/ml, read-out: Aβ40 Production Inhibitory Rate (%) against Negative Control): 97.2% |
| O=C1NC2C(=CC(O)C(O)C2O)c2cc3c(c(O)c21)OCO3 (centres unmarked) [Lycoricidinol, lycoricidinol] | did not affect the secretion; also recorded: not significant | 1.0 | concentration-dependent | 94 | 100 | did not change the activity | did not affect the secretion; also recorded: not significant | 7.5 | 10.3 | 11.6 | 16.5 | 19.3 | not cytotoxic | concentration-dependent | Aβ42 Production Inhibitory Rate (%) against Negative Control ([1]; 0.01 μg/ml): 44.0%; Aβ42 Production Inhibitory Rate (%) against Negative Control ([1]; 0.1 μg/ml): 97.0%; Aβ42 Production Inhibitory Rate (%) against Negative Control ([1]; 1 μg/ml): 100%; Aβ42 Production Inhibitory Rate (%) against Negative Control ([1]; 10 μg/ml): 100%; Aβ40 Production Inhibitory Rate (%) against Negative Control ([2]; 0.01 μg/ml): 25.0%; Aβ40 Production Inhibitory Rate (%) against Negative Control ([2]; 0.1 μg/ml): 90.4%; Aβ40 Production Inhibitory Rate (%) against Negative Control ([2]; 1 μg/ml): 97.8%; Aβ40 Production Inhibitory Rate (%) against Negative Control ([2]; 10 μg/ml): 98.4% |
